Experimental data taken from the Deep4Chem optical property database.
Blank lines part the entries; values can stand above or below the compound they belong to.

Assay: solvent given as SMILES

absorption maximum (in C1CCOC1): 455 nm | absorption maximum (in C1COCCO1): 452 nm | absorption maximum (in CN(C)C=O): 471 nm | absorption maximum (in CS(C)=O): 477 nm | absorption maximum (in ClCCl): 461 nm
Compound: CN(C)c1ccc2cc(C(/C=C/c3cn(C)c4ccccc34)=C(C#N)C#N)c(=O)oc2c1

absorption maximum (in C1CCOC1): 342 nm | absorption maximum (in ClCCl): 342 nm
Compound: Cc1ccc(-c2ccc3ccc4cc(C(C)(C)C)cc5ccc2c3c45)cc1

absorption maximum (in C1COCCO1): 536 nm | absorption maximum (in CN(C)C=O): 543 nm | absorption maximum (in CO): 538 nm | absorption maximum (in CS(C)=O): 545 nm | absorption maximum (in c1ccccc1): 544 nm
Compound: O=C1/C(=C2\Sc3ccccc3C2=O)Sc2ccccc21

Compound: c1ccc2cc(-n3c4ccccc4c4ccccc43)ccc2c1
absorption maximum (in C1CCCCC1): 318 nm | absorption maximum (in C1CCOC1): 320 nm | absorption maximum (in CC#N): 321 nm | absorption maximum (in CCO): 320 nm | absorption maximum (in CCOC(C)=O): 318 nm | absorption maximum (in CCOCC): 319 nm | absorption maximum (in CO): 319 nm | absorption maximum (in Cc1ccccc1): 319 nm | absorption maximum (in ClC(Cl)Cl): 321 nm

absorption maximum (in ClCCl): 376 nm
Compound: Cc1cc(-c2ccc(C(C)(C)C)cc2)c2nsnc2c1-c1ccc(C(C)(C)C)cc1

absorption maximum (in ClCCl): 300 nm
Compound: CCCCCCCCCn1c(-c2cc(-c3nc4ccccc4n3CCCCCCCCC)cc(-c3nc4ccccc4n3CCCCCCCCC)c2)nc2ccccc21

Compound: CCCCCCC(CCCCCC)N1C(=O)c2cccc3c(-c4ccc(OC)cc4)ccc(c23)C1=O
absorption maximum (in CCCCCC): 354.2 nm | absorption maximum (in CCCCCCCCCCCCCC): 356.4 nm | absorption maximum (in CCCCCCCCCCCO): 365.6 nm | absorption maximum (in CCCCO): 366.2 nm | absorption maximum (in CN(C)C=O): 368 nm | absorption maximum (in Cc1ccccc1): 364.2 nm | absorption maximum (in ClC(Cl)Cl): 364.8 nm

absorption maximum (in CCCCCC): 540 nm
Compound: CC(C)[Si](C#Cc1c2nsnc2c(C#C[Si](C(C)C)(C(C)C)C(C)C)c2nc3c(nc12)Cc1ccccc1-3)(C(C)C)C(C)C

absorption maximum (in CC#N): 501 nm | absorption maximum (in CCCCCC): 506 nm | absorption maximum (in CO): 503 nm | absorption maximum (in ClC(Cl)Cl): 509 nm | absorption maximum (in ClCCl): 506 nm
Compound: CC1=CC(C)=[N+]2C1=C(c1ccc3cccnc3n1)c1c(C)cc(C)n1[B-]2(F)F

absorption maximum (in ClCCl): 666 nm
Compound: CCC1=C(C)C2=C(/C=C/c3ccc([N+](=O)[O-])cc3)c3c(C)c(CC)c(/C=C/c4ccc(OC)cc4)n3[B-](F)(F)[N+]2=C1/C=C/c1ccc(OC)cc1

absorption maximum (in CC#N): 328 nm | absorption maximum (in CCOC(C)=O): 328 nm | absorption maximum (in CN(C)C=O): 332 nm | absorption maximum (in CS(C)=O): 336 nm | absorption maximum (in c1ccccc1): 328 nm
Compound: CCOC(=O)CN(CC(=O)OCC)c1ccc(-c2cc(-c3ccccn3)nc(-c3ccccn3)c2)cc1

Compound: CC1(C)c2ccccc2N(c2ccc(-c3cc(C#N)c(C#N)cc3-c3ccc(N4c5ccccc5C(C)(C)c5ccccc54)cc3)cc2)c2ccccc21
absorption maximum (in Cc1ccccc1): 384 nm

Compound: Cc1ccc2oc(-c3cc4cc(C)ccc4oc3=O)cc2c1
absorption maximum (in CC#N): 372 nm | absorption maximum (in CCOC(C)=O): 374 nm | absorption maximum (in CS(C)=O): 377 nm | absorption maximum (in Cc1ccccc1): 378 nm | absorption maximum (in O): 351 nm

absorption maximum (in CC#N): 577 nm | absorption maximum (in CCO): 564 nm | absorption maximum (in CN(C)C=O): 580 nm | absorption maximum (in O): 575 nm
Compound: O=C([O-])c1ccccc1C1=c2cc3c4c(c2Oc2c1cc1c5c2CCCN5CCC1)CCC[N+]=4CCC3

absorption maximum (in CC#N): 378 nm
Compound: CCOC(=O)c1c2c3c(ccc(OC)c3c3cc4c(cc13)[Si](C)(C)O[Si]4(C)C)N(C)C2=O

absorption maximum (in ClCCl): 314 nm
Compound: Clc1ccccc1N1c2sc3ccccc3c2Sc2sc3ccccc3c21

absorption maximum (in CC#N): 376 nm
Compound: CCOC(=O)c1c2c3c(ccc([N+](=O)[O-])c3c3cc4c(cc13)[Si](C)(C)O[Si]4(C)C)N(C)C2=O

Compound: CC(C)(C)c1ccc2c(c1)c1cc(C(C)(C)C)ccc1n2-c1ccc(S(=O)(=O)c2ccc(S(=O)(=O)c3ccc(-n4c5ccc(C(C)(C)C)cc5c5cc(C(C)(C)C)ccc54)cc3)cc2)cc1
absorption maximum (in Cc1ccccc1): 363 nm

absorption maximum (in C1COCCO1): 390 nm
Compound: COc1ccc(C2=N/C(=C\c3ccccc3)C(=O)N2)cc1OC

absorption maximum (in ClCCl): 330 nm
Compound: COc1ccc(-c2cnc(C#Cc3ccccc3)o2)cc1OC

absorption maximum (in ClCCl): 506 nm
Compound: CN(C)c1ccc(C#Cc2cc(C#Cc3ccc(N(C)C)cc3)c3ccc4c(C#Cc5ccc(C(F)(F)F)cc5)cc(C#Cc5ccc(N(C)C)cc5)c5ccc2c3c54)cc1

Compound: CCc1ccc(/C=C/c2ccc(-c3nnc(-c4ccc(-c5cc6ccccc6s5)cc4)o3)cc2)cc1
absorption maximum (in CC#N): 342 nm | absorption maximum (in CC(C)=O): 347 nm | absorption maximum (in CCCCCCCC): 341 nm | absorption maximum (in CCCCCCCCCCO): 357 nm | absorption maximum (in CCCCCCCCO): 357 nm | absorption maximum (in CCCCCO): 354 nm | absorption maximum (in CCCO): 347 nm | absorption maximum (in CN(C)C=O): 355 nm | absorption maximum (in CO): 326 nm | absorption maximum (in CS(C)=O): 350 nm

absorption maximum (in ClCCl): 339 nm
Compound: COc1ccc(/C=C/c2cc(/C=C/c3ccc(OC)cc3)nc(/C=C/c3ccc(OC)cc3)n2)cc1

absorption maximum (in CCO): 442 nm
Compound: Nc1cc2nc3cc(Br)c(Br)cc3nc2cc1N

absorption maximum (in CC#N): 373 nm
Compound: COc1ccc(/C=C(\C#N)c2nc(-c3ccc(Cl)cc3)cs2)cc1

Compound: COC(=O)C(Cc1ccc2oc(-c3ccc(-n4c5ccccc5c5ccccc54)cc3)nc2c1)NC(=O)OC(C)(C)C (centres undefined)
absorption maximum (in C1CCCCC1): 340 nm | absorption maximum (in C1CCOC1): 341.8 nm | absorption maximum (in C1COCCO1): 341.4 nm | absorption maximum (in CC1CCCO1): 341.41 nm | absorption maximum (in CC#N): 340 nm | absorption maximum (in CC(C)(C)O): 341.8 nm | absorption maximum (in CC(C)=O): 340.7 nm | absorption maximum (in CC(C)CC(C)(C)C): 339.9 nm | absorption maximum (in CC(C)O): 340.48 nm | absorption maximum (in CC(O)CO): 342.3 nm | absorption maximum (in CCCCCCCO): 342.5 nm | absorption maximum (in CCCCCCO): 342.59 nm | absorption maximum (in CCCCCO): 340.8 nm | absorption maximum (in CCCCO): 341.8 nm | absorption maximum (in CCO): 340.48 nm | absorption maximum (in CCOC(C)=O): 340.02 nm | absorption maximum (in CCOCC): 339.6 nm | absorption maximum (in CN(C)C=O): 342.11 nm | absorption maximum (in CO): 339.7 nm | absorption maximum (in CS(C)=O): 343.6 nm | absorption maximum (in Cc1ccccc1): 342.61 nm | absorption maximum (in OCCO): 343.21 nm

absorption maximum (in CC#N): 390 nm | absorption maximum (in CO): 400 nm | absorption maximum (in ClCCl): 396 nm
Compound: O=C1c2ccccc2-c2c(-c3cc(Br)ccc3O)[nH]c(=O)n21

absorption maximum (in ClCCl): 615 nm
Compound: CCCCN1C(=O)c2cc(Oc3ccc(C(C)(C)C)cc3)c3c4c(Oc5ccc(C(C)(C)C)cc5)cc5c(=O)[nH]/c(=C\c6ccccn6)c6cc(Oc7ccc(C(C)(C)C)cc7)c(c7c(Oc8ccc(C(C)(C)C)cc8)cc(c2c37)C1=O)c4c56

Compound: CCC1(CC)c2cc(B(c3c(C)cc(C)cc3C)c3c(C)cc(C)cc3C)ccc2-c2c1c1c(c3c2C(CC)(CC)c2cc(N(c4ccccc4)c4ccccc4)ccc2-3)C(CC)(CC)c2cc(B(c3c(C)cc(C)cc3C)c3c(C)cc(C)cc3C)ccc2-1
absorption maximum (in C1CCOC1): 362 nm | absorption maximum (in CC#N): 359 nm | absorption maximum (in CC(C)=O): 360 nm | absorption maximum (in CCCCCC): 361 nm | absorption maximum (in CCCO): 360 nm | absorption maximum (in CCO): 360 nm | absorption maximum (in Cc1ccccc1): 363 nm | absorption maximum (in ClC(Cl)Cl): 364 nm

absorption maximum (in ClCCl): 300 nm
Compound: CC(C)(C)c1ccc(-c2ccc3c(-c4ccc(C(C)(C)C)c5ccccc45)cc4c5cc(-c6ccc(C(C)(C)C)c7ccccc67)ccc5c(-c5ccc(C(C)(C)C)c6ccccc56)cc4c3c2)c2ccccc12

absorption maximum (in ClC(Cl)Cl): 438 nm
Compound: CN1CCCc2cc(C3=Cc4cccc[n+]4[B-](F)(F)O3)ccc21

absorption maximum (in ClC(Cl)Cl): 848 nm
Compound: CC1=c2cc3c(cc2=[N+]2C1=Cc1c4ccccc4c(C)n1[B-]2(F)F)C1=Cc2c4ccccc4c(C)n2[B-](F)(F)[N+]1=C3C
